Reference: patent US20140273094A1, “METHODS OF ENHANCING PROTEIN QUALITY AND QUANTITY BY YEAST FED-BATCH FERMENTATION” (BRISTOL-MYERS SQUIBB COMPANY, priority 2013, published 2014)

Test system: P. pastoris
Experiment: Effect of hydroxyurea on cell growth and antibody productivity in fed-batch fermentation, Run 01MAY11
Format: cell-based, Pichia pastoris
Description: The glucose and ethanol were measured by YSI 2700 (YSI Incorporated, Yellow Springs, Ohio), O2 and CO2 of the exhaust line were measured by Questor GP Process Mass Spectrometer (ABB Extrel, Pittsburgh, Pa.) and the RQ value was calculated using below Equation [1]. The wet cell weight (WCW) was measured by centrifuging 1 milliliter (mL) fermentation broth at 13,200 rpm for 10 minutes, weighing pellet, and calculated ratio of pellets weight (g) over volume (mL). The supernatant titer (g/L) was measured by the HPLC method and the whole broth (WB) titer was then calculated by below Equation [2].
WB_Titer=Supernatant_Titer*(1−WCW/1000)
The treatment cultures were operated the same way plus adding hydroxyurea 5 hours after feed start.

SMILES: NC(=O)NO [Hydroxyurea]
- average whole broth titer (90 hours run time, three hydroxyurea treatment lots): 75 normalized units
- WCW reached and maintained by hydroxyurea treatment lots (after peak cell density at 30-40 hours, control lots ~400 g/Kg): ~450 g/kg
